Entries after “also recorded” stand apart in the source; their conditions may differ.
Experiments:
[1] = system: 210 p53 wild-type cancer cell lines; assay: Cell line panel screen, CellTiter-Glo, 3 days; type: cell-based; details: ANOVA, adjusted p-value<0.02
Experimental: Genomic features for these cell lines such as somatic mutations, copy number alterations and hypermethylation were obtained from the list of Cancer Functional Events as reported by Garnett et al (2016). ANOVA method was used to identify significant associations of genomics features to Compound 1 drug response.
Cancer cells were cultured in appropriate medium.
Each cell line was tested in triplicates.

[2] = system: 12 p53 wild-type, patient-derived mesothelioma cell lines; assay: 72-hour Alamar Blue proliferation assay, panel; type: cell-based; details: Homo sapiens
Experimental: (§1) For all cell lines the number of viable cells was determined by measuring the conversion of Rezasurin (Alamar Blue) to Resorufin in response to mitochondrial activity of the viable cells. Alamar Blue™ (AbD Serotec/Bio-Rad, Hercules, CA, USA) was added to 10% of the well volume (20 μl/well) towards the end of the treatment period and incubated for a further 8-24 h. The plate was then read at 535 nm (excitation) and 590 nm (emission) on a SpectraMax Gemini reader (Molecular Devices, Sunnyvale, CA, USA). Each well was calculated as percentage of the mean DMSO control.

[3] = system: #12 mesothelioma cell line; assay: 72-hour Alamar Blue proliferation assay; type: cell-based; details: Homo sapiens, read-out: Mean Compound 1 Proliferation IC50 (μM), cell line #12
Experimental: as §1

[4] = system: #19 mesothelioma cell line; assay: 72-hour Alamar Blue proliferation assay; type: cell-based; details: Homo sapiens, read-out: Mean Compound 1 Proliferation IC50 (μM), cell line #19
Experimental: as §1

[5] = system: #2 mesothelioma cell line; assay: 72-hour Alamar Blue proliferation assay; type: cell-based; details: Homo sapiens, read-out: Mean Compound 1 Proliferation IC50 (μM), cell line #2
Experimental: as §1

[6] = system: #24 mesothelioma cell line; assay: 72-hour Alamar Blue proliferation assay; type: cell-based; details: Homo sapiens, read-out: Mean Compound 1 Proliferation IC50 (μM), cell line #24
Experimental: as §1

[7] = system: #35 mesothelioma cell line; assay: 72-hour Alamar Blue proliferation assay; type: cell-based; details: Homo sapiens, read-out: Mean Compound 1 Proliferation IC50 (μM), cell line #35
Experimental: as §1

[8] = system: #40 mesothelioma cell line; assay: 72-hour Alamar Blue proliferation assay; type: cell-based; details: Homo sapiens, read-out: Mean Compound 1 Proliferation IC50 (μM), cell line #40
Experimental: as §1

[9] = system: #52 mesothelioma cell line; assay: 72-hour Alamar Blue proliferation assay; type: cell-based; details: Homo sapiens, read-out: Mean Compound 1 Proliferation IC50 (μM), cell line #52
Experimental: as §1

[10] = system: MESO-29T mesothelioma cell line; assay: 72-hour Alamar Blue proliferation assay; type: cell-based; details: Homo sapiens, read-out: Mean Compound 1 Proliferation IC50 (μM), cell line MESO-29T
Experimental: as §1

[11] = system: MESO-50T mesothelioma cell line; assay: 72-hour Alamar Blue proliferation assay; type: cell-based; details: Homo sapiens, read-out: Mean Compound 1 Proliferation IC50 (μM), cell line MESO-50T
Experimental: as §1

[12] = system: human patient-derived mesothelioma cell lines; assay: Induction of activated caspase-3, panel; type: cell-based; details: all 12 cell lines
Experimental: (§2) In certain embodiments, the MDM2 antagonist induces apoptosis of the cancer cell. Apoptosis may typically be mediated via activated caspase-3. Induction of apoptosis can be determined by detecting cells that are positive for activated caspase-3 following 72-hour treatment with 1 μM of the MDM2 antagonist. […] In certain embodiments, at least 10%, at least 20% or at least 30% of cells staining positive for activated caspase-3 is an indicator of induced apoptosis. […] Active caspase-3 staining kits are commercially-available, for example the “Cleaved Caspase-3 Staining Kit (Red)” available from Abcam (Cambridge, UK) as catalogue number ab65617. The Invitrogen Cell Event dye (C10423) may also be used.
(§3) The extent of Compound 1-induced apoptosis is not predicted from the IC50 values obtained from the Alarmar Blue proliferation assays (Table 1), thus emphasising the impact of grouping cell lines specifically based on their apoptotic potential for subsequent bioinformatics analyses described in the following section.

[13] = system: #12 mesothelioma cell line; assay: Induction of activated caspase-3; type: cell-based, human; details: 72-hour treatment with 1 μM Compound 1
Experimental: as §2, §3

[14] = system: #18 mesothelioma cell line; assay: Induction of activated caspase-3; type: cell-based, human; details: 72-hour treatment with 1 μM Compound 1
Experimental: as §2, §3

[15] = system: #19 mesothelioma cell line; assay: Induction of activated caspase-3; type: cell-based, human; details: 72-hour treatment with 1 μM Compound 1
Experimental: as §2, §3

[16] = system: #2 mesothelioma cell line; assay: Induction of activated caspase-3; type: cell-based, human; details: 72-hour treatment with 1 μM Compound 1
Experimental: as §2, §3

[17] = system: #24 mesothelioma cell line; assay: Induction of activated caspase-3; type: cell-based, human; details: 72-hour treatment with 1 μM Compound 1
Experimental: as §2, §3

[18] = system: #26 mesothelioma cell line; assay: Induction of activated caspase-3; type: cell-based, human; details: 72-hour treatment with 1 μM Compound 1
Experimental: as §2, §3

[19] = system: #35 mesothelioma cell line; assay: Induction of activated caspase-3; type: cell-based, human; details: 72-hour treatment with 1 μM Compound 1
Experimental: as §2, §3

[20] = system: #40 mesothelioma cell line; assay: Induction of activated caspase-3; type: cell-based, human; details: 72-hour treatment with 1 μM Compound 1
Experimental: as §2, §3

[21] = system: #52 mesothelioma cell line; assay: Induction of activated caspase-3; type: cell-based, human; details: 72-hour treatment with 1 μM Compound 1
Experimental: as §2, §3

[22] = system: MESO-29T mesothelioma cell line; assay: Induction of activated caspase-3; type: cell-based, human; details: 72-hour treatment with 1 μM Compound 1
Experimental: as §2, §3

[23] = system: MESO-50T mesothelioma cell line; assay: Induction of activated caspase-3; type: cell-based, human; details: 72-hour treatment with 1 μM Compound 1
Experimental: as §2, §3

[24] = system: MESO-7T mesothelioma cell line; assay: Induction of activated caspase-3; type: cell-based, human; details: 72-hour treatment with 1 μM Compound 1
Experimental: as §2, §3

[25] = system: Caki-1 renal cancer cell line with BAP1 knock-down; assay: CAKI1 shBAP1 apoptotic assay (Annexin V); type: cell-based, human; details: 72 hours with 1 uM Compound 1; BAP1 loss versus control
From the text: 3 independent shRNAs targeting BAP1 were used and BAP1 knock-down levels achieved with 2 independent shRNAs.

[26] = system: primary mesothelioma cell line Meso #24 with BAP1 knockdown; assay: Apoptosis after BAP1 shRNA knockdown; type: cell-based, human; details: BAP1 knockdown versus control
From the text: BAP1 shRNA was used on primary mesothelioma cell line Meso #24 to achieves table BAP1 knockdown.

OCI-AML3 cells = assay: Induction of apoptosis by cleaved caspase-3 cytometry; type: cell-based; details: 0.1 μM COMPOUND 1 alone, 72 h

CC[C@@](O)(c1cc(F)c2c(c1)C(=O)N([C@H](c1ccc(Cl)cc1)[C@H](C)C(=O)O)[C@@]2(OC)c1ccc(Cl)cc1)C1CCOCC1 [Compound 1, (2S,3S)-3-(4-chlorophenyl)-3-[(1R)-1-(4-chlorophenyl)-7-fluoro-5-[(1S)-1-hydroxy-1-(oxan-4-yl)propyl]-1-methoxy-3-oxo-2,3-dihydro-1H-isoindol-2-yl]-2-methylpropanoic acid]
sensitivity of cell lines with CDKN2A loss versus wild-type CDKN2A [1]: enhanced sensitivity
IC50 ([2]; in 7 of the 12 cell lines): < 100 nM
IC50 ([2]; in 11 cell lines): < 400 nM
IC50 [3]: 0.078 µM
IC50 [4]: 0.17 µM
IC50 [5]: 0.062 µM
IC50 [6]: 0.094 µM
IC50 [7]: 0.045 µM
IC50 [8]: 0.0092 µM
IC50 [9]: 0.076 µM
IC50 [10]: > 10 µM
IC50 [11]: 0.067 µM
activated caspase-3 induction [12]: increase in activated caspase-3 was observed in all cell lines
cells staining positive for activated caspase-3 [13]: > 40%
apoptosis (cells positive for activated caspase-3) [14]: < 40%
cells staining positive for activated caspase-3 [15]: > 40%
cells staining positive for activated caspase-3 [16]: > 40%
apoptosis (cells positive for activated caspase-3) [17]: < 40%
apoptosis (cells positive for activated caspase-3) [18]: < 40%
apoptosis (cells positive for activated caspase-3) [19]: < 40%
cells staining positive for activated caspase-3 [20]: > 40%
cells staining positive for activated caspase-3 [21]: > 40%
apoptosis (cells positive for activated caspase-3) [22]: < 40%
apoptosis (cells positive for activated caspase-3) [23]: < 40%
cells staining positive for activated caspase-3 [24]: > 40%
% of cells undergoing apoptosis (Annexin V) [25]: increased apoptosis
apoptosis after Compound 1 treatment [26]: increased apoptosis
level of apoptosis (cleaved caspase-3) (OCI-AML3 cells): did not induce a high level of apoptosis; also recorded: does not induce substantial levels of cell death by apoptosis

Reference: patent US20230338337A1, “BIOMARKERS FOR CANCER THERAPY USING MDM2 ANTAGONISTS” (OTSUKA PHARMACEUTICAL CO., LTD., priority 2019, published 2023)
